From paper PMC9822975, “Functional analysis in a model sea anemone reveals phylogenetic complexity and a role in cnidocyte discharge of DEG/ENaC ion channels” (Communications Biology, 2023)
Where two headings read alike, the source gives them in different places.

What was measured:
[1] = tested on: T1, NeNaC2; assay: two-electrode voltage clamp, Xenopus oocytes; assay type: cell-based, Nematostella vectensis; details: channel activated with pH 6.0, -70 mV
T1 construct: full length, homomeric in Xenopus laevis oocytes (pRSSP vector, cRNA); residues H141 and G516 (DEG position)

[2] = tested on: T2, NeNaC8; assay: two-electrode voltage clamp, Xenopus oocytes; assay type: cell-based, Nematostella vectensis; details: -70 mV, read-out: Apparent IC50
T2 construct: full length, homomeric in Xenopus laevis oocytes (pRSSP vector, cRNA)

IC50 ([1]; complete inhibition at high concentrations, n = 14) [µM]	IC50 ([2]; 1.8 mM Ca2+ (standard bath), pH 7.4, not competitive with Ca2+, n = 14) [µM]	Structure (SMILES)	IC50 ([1]; inhibition incomplete even at high concentrations, n = 10) [µM]	IC50 ([2]; channel opened by bath with 100 nM Ca2+, n = 11) [µM]
–	–	N=C(N)NC(=O)c1nc(Cl)c(N)nc1N [amiloride]	1300 ± 2300	310 ± 180
2.4 ± 0.9	0.124 ± 0.075	N=C(N)c1ccc(N=NNc2ccc(C(=N)N)cc2)cc1 [diminazene]	–	–
